Test results taken from patent US20110207745A1 (priority 2009, published 2011).
“And” between values parts separate entries of the source, which are not always exact repeats. Equal values may be shown once. Where a name gives a salt, the structure may show the parent alone. Read-outs that look alike come from different tables or passages of the source.

What was measured:
[1] = for % Purity after 40° C./75% RH, 2 wks / % Purity after 40° C./75% RH, 4 wks / % Purity after 60° C./80% RH, 2 wks / % Purity after 60° C./80% RH, 4 wks / % Purity after 80° C., 2 wks / % Purity after 80° C., 4 wks / Initial Purity: HPLC area %; for % Purity after 60° C./80% RH, 2 wks / % Purity after 80° C., 2 wks: 2 weeks; for % Purity after 60° C./80% RH, 4 wks / % Purity after 80° C., 4 wks: 4 weeks; for Initial Purity: before storage
Experimental: Stress Experiments. Solids are stressed under different temperature or relative humidity (RH) environments for a measured time period. Specific RH values are achieved by placing the sample inside sealed chambers containing saturated salt solutions, as known in the art. The salt solutions are selected and prepared following an ASTM standard procedure. Samples are analyzed by XRPD immediately after removal from the stress environment.
Analyses are carried out on an Agilent® model 1100 high performance liquid chromatograph using gradient elution on a reversed phase column utilizing ultraviolet (UV) detection. Approximately 25 mg of the sample is weighed accurately and dissolved in methanol/water/trifluoroacetic acid (35:65:0.05) to a volume of 50 mL. The sample solution is analysed using the conditions specified below:
The content of the drug and related substances are quantified by area (%).
Chemical Stability. The chemical stability of Form I of the mono-HCl salt of Compound A1 was assessed by stressing the material at various temperature/relative humidity/light conditions, then analyzing by HPLC.
Chemical Stability Data. The chemical stability of a sample of Form I of the sesquifumarate salt of Compound A1 was assessed by stressing the material at various temperature/relative humidity/light conditions, then analyzing by HPLC.

[2] = Solubility in simulated biological media; type: physicochemical; settings: FaSSIF (fasted-state simulated intestinal fluid), initial pH 6.51, mean ± SD, n = 2
Source text: Solubility and Dissolution Rate Data.
Solubility and Dissolution Rate Data. […]

[3] = Intrinsic dissolution rate in simulated biological media; type: physicochemical
Experimental: Intrinsic dissolution rate is determined at 37° C. using a Distek Dissolution System model 5100A with a sample size of approximately 200 mg (0.5 cm^2 disc) and 500 mL dissolution medium. The paddle speed is set to 500 rpm and the paddle height to approximately 2.54 cm above the disc surface. The concentration of sample in solution is determined by HPLC.

rat = experiment: Punished responding procedure (modified Geller-Seifter conflict test); settings: 3.5 μmol/kg by mouth
Source text: Method. In the conflict test, hungry animals were trained to lever-press for food delivery in a standard operant chamber under 2 conditions. In the first condition, referred to as the unsuppressed component, food was delivered on average after 17 lever-presses were made (also called a VR17 schedule of reinforcement). In the second condition, referred to as the suppressed component and signaled by flashing lights inside the operant chamber, food was also delivered following an average of 17 lever-presses, but electric shock was additionally delivered to the floor of the cage under a separate VR17 schedule. Daily sessions consisted of 5 alternating presentations of each component type: suppressed (3 minutes in duration) and unsuppressed (2 minutes in duration). The number of lever presses emitted in the suppressed component was obviously low relative to the unsuppressed component.
Drug Administration and Preparation. […] Monday and Wednesday were washout/baseline days.
Apparatus. Standard 2-lever operant chambers were used (Med Associates). The chambers were fitted with 2 retractable response levers and a stimulus lamp over each of the 2 levers. A pellet dispenser delivered 45 mg food pellets, (Bio Serv) to a cup located inside of the chamber below and between the 2 response levers. A lamp at the top and back of the chamber served as houselights. The grid floors of the operant chambers were interfaced to shock generators and scramblers (Med Associates). All events in the chambers were controlled and monitored by a microprocessor.
Procedures. There were 2 components in the procedure: 1) an unsuppressed responding component (unpunished) with 2 minutes in duration; and 2) a suppressed responding component (punished) with 3 minutes in duration.
In the unpunished component, the houselights and both stimulus lamps over the response levers were turned on, the lever on the left-hand side of the chamber extended, and a food pellet was delivered following an average of 17 responses on the lever in the chamber (range 3 to 40 responses)—a variable-ratio 17 schedule (VR17).
In the punished component (which followed the unpunished component), the right-hand lever was extended into the chamber; the stimulus lamps and houselights were turned on and off at 1 second intervals, in succession, which served as a cue for this component; and food was available under a VR17 schedule, but was accompanied by an electrical current (0.5 second duration) that was delivered to the grid floor of the chamber under an independent VR17 schedule. The level of the current was adjusted for each individual subject until responding was reduced in the punished component to a level that was about 5% to 10% that of the unpunished component, and ranged from 0.2 mA to 0.75 mA. Unpunished and punished components were separated by 10 second time-out periods in which both response levers were retracted and all stimulus lamps turned off. 2 minute unpunished and 3 minute punished components alternated until 5 of each were completed. Daily sessions always began with the unpunished responding component. […] Several doses were tested on a given test day in different subjects. Each dose, then, was tested in different sub-set of rats.
Data Analysis. The dependent variables recorded were the rate of responding in unpunished and punished components (total responses/total time under the component) and the number of shocks delivered.

[4] = Ultraviolet light, 25° C./60% RH, 2x ICH (2 days), stored open
[5] = Ultraviolet light, 25° C./60% RH, 3x ICH (3 days), stored open
[6] = Ultraviolet light, 25° C./60% RH, ICH (1 day), stored open
[7] = White light, 25° C./60%, ICH (7 days), stored open

Structure (SMILES): CCN(CC)C(=O)c1ccc([C@H](c2cccc(N)c2)N2CCN(Cc3ccc(F)cc3)CC2)cc1 [Sulfate Salt of Compound A1, 4-{(R)-(3-aminophenyl)[4-(4-fluorobenzyl)piperazin-1-yl]methyl}-N,N-diethylbenzamide]
- % Purity after 40° C./75% RH, 2 wks ([1]; 40° C./75% RH): 92.6% and 88.7%
- % Purity after 40° C./75% RH, 4 wks ([1]; 40° C./75% RH): 91.2% and 87.3%
- % Purity after 60° C./80% RH, 2 wks [1]: 74.1% and 80.5%
- % Purity after 60° C./80% RH, 4 wks [1]: 62.3% and 80.6%
- % Purity after 80° C., 2 wks ([1]; 80° C.): 78.5% and 88.7%
- % Purity after 80° C., 4 wks ([1]; 80° C.): 67.1% and 85.7%
- Initial Purity [1]: 93.3% and 94.7%

Structure (SMILES): CCN(CC)C(=O)c1ccc([C@H](c2cccc(N)c2)N2CCN(Cc3ccc(F)cc3)CC2)cc1 [Phosphate Salt of Compound A1, 4-{(R)-(3-aminophenyl)[4-(4-fluorobenzyl)piperazin-1-yl]methyl}-N,N-diethylbenzamide]
- % Purity after 40° C./75% RH, 2 wks ([1]; 40° C./75% RH): 88.6%
- % Purity after 40° C./75% RH, 4 wks ([1]; 40° C./75% RH): 87.7%
- % Purity after 60° C./80% RH, 2 wks [1]: 81.4%
- % Purity after 60° C./80% RH, 4 wks [1]: 78.4%
- % Purity after 80° C., 2 wks ([1]; 80° C.): 86.6%
- % Purity after 80° C., 4 wks ([1]; 80° C.): 83.4%
- Initial Purity [1]: 91.2%

Structure (SMILES): CCN(CC)C(=O)c1ccc([C@H](c2cccc(N)c2)N2CCN(Cc3ccc(F)cc3)CC2)cc1 [Amorphous Tri-HCl Salt of Compound A1, 4-{(R)-(3-aminophenyl)[4-(4-fluorobenzyl)piperazin-1-yl]methyl}-N,N-diethylbenzamide]
- % Purity after 60° C./80% RH, 2 wks [1]: 93.5%
- % Purity after 60° C./80% RH, 4 wks [1]: 89.7%
- % Purity after 80° C., 2 wks ([1]; 80° C.): 93.1%
- % Purity after 80° C., 4 wks ([1]; 80° C.): 91.1%
- Initial Purity [1]: 97.7%

Structure (SMILES): CCN(CC)C(=O)c1ccc([C@H](c2cccc(N)c2)N2CCN(Cc3ccc(F)cc3)CC2)cc1 [Form I of the mono-HCl salt of Compound A1] [4-{(R)-(3-aminophenyl)[4-(4-fluorobenzyl)piperazin-1-yl]methyl}-N,N-diethylbenzamide]
- Solubility, 3 hr ([2]; 3 hr): 1720 µg/mL
- Solubility, 24 hr ([2]; 24 hr): 830 µg/mL
- IDR (intrinsic dissolution rate) ([3]; FaSSIF, initial pH 6.51, mean ± SD, n = 2): 48.4 μg/min/cm^2
- IDR (intrinsic dissolution rate) ([3]; FaSSIF, initial pH 6.51, mean ± SD, n = 2, listed as Form I of the Compound A1 Mono-HCl Salt): 48.4 ± 7.12 μg/min/cm^2
- IDR (intrinsic dissolution rate) ([3]; FeSSIF, initial pH 5.03, mean ± SD, n = 2): 91.6 μg/min/cm^2
- IDR (intrinsic dissolution rate) ([3]; FeSSIF, initial pH 5.03, mean ± SD, n = 2, listed as Form I of the Compound A1 Mono-HCl Salt): 91.6 ± 5.48 μg/min/cm^2
- IDR (intrinsic dissolution rate) ([3]; SGF, initial pH 1.3): too soluble to permit determination of its IDR
- % Purity (after challenge) ([1]; 25° C./60% RH, 7 days): 99.8%
- % Purity (reference material) ([1]; 25° C./60% RH, 7 days): 103.2%
- % Purity after 40° C./75% RH, 2 wks ([1]; 40° C./75% RH): 97.3% and 98.8%
- % Purity after 40° C./75% RH, 4 wks ([1]; 40° C./75% RH): 97.2% and 98.8%
- % Purity (after challenge) ([1]; 40° C./75% RH, 7 days): 99.8%
- % Purity (reference material) ([1]; 40° C./75% RH, 7 days): 102.1%
- % Purity after 60° C./80% RH, 2 wks [1]: 90.4% and 97.6%
- % Purity after 60° C./80% RH, 4 wks [1]: 89.0% and 95.3%
- % Purity after 80° C., 2 wks ([1]; 80° C.): 94.1% and 96.9%
- % Purity after 80° C., 4 wks ([1]; 80° C.): 92.3% and 95.4%
- % Purity (after challenge) ([1]; 80° C., 7 days): 99.8%
- % Purity (reference material) ([1]; 80° C., 7 days): 101.4%
- % Purity (after challenge) ([1]; Reference, 0 days): 99.8%
- % Purity (reference material) ([1]; Reference, 0 days): 100%
- % Purity (after challenge) [1, 4]: 99.2%
- % Purity (reference material) [1, 4]: 95.0%
- % Purity (after challenge) [1, 5]: 99.0%
- % Purity (reference material) [1, 5]: 94.7%
- % Purity (after challenge) [1, 6]: 99.6%
- % Purity (reference material) [1, 6]: 98.0%
- % Purity (after challenge) [1, 7]: 98.5%
- % Purity (reference material) [1, 7]: 95.6%
- Initial Purity [1]: 97.0% and 98.7%

Structure (SMILES): CN1C(=O)CN=C(c2ccccc2)c2cc(Cl)ccc21 [diazepam, reference compound]
- level of efficacy in modified Geller-Seifter conflict model (rat): about 250%
